Four compounds from ChEMBL document CHEMBL1201862, “PubChem BioAssay data set” (2004) can be followed below.

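48-hour exposure; five concentrations; linearly interpolated endpoints. GI50 = concentration required for 50% inhibition of growth.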 Active and inactive are the calls of the source. Cut-off read from the data, not from the text of the source: active = GI50 up to about 1.1 µM and inactive = higher. Where a SMILES comes first, the peptide text is derived from it. The star is where a group is joined. Cbz = O=C(OCc1ccccc1)* Where only a bound is given, the exact number is not on record here.

Test systems include EKVX; A498; SF-539; K562; UO-31; HCT-15; RXF 393; PC-3; M14; BT-549; MDA-MB-231; NCI-H460; OVCAR-3; SK-MEL-2; RPMI-8226; Hs-578T; NCI-H23; CAKI-1; HOP-92; T47D.
Holding throughout (test): NCI-60 cell line screen, 48 h

Regarding `O=C(CN1CCOCC1)c1ccc2c(c1)oc(=O)n2CCN1CCCCC1`, the GI50 with EKVX is 82.2 µM (inactive); in the assay on A498, > 100 µM (inactive); with SF-539, > 100 µM (inactive); in the assay on K562, > 100 µM (inactive); with UO-31, > 100 µM (inactive); with HCT-15, greater than 100 µM. In addition, the GI50 in the assay with RXF 393, in the assay with PC-3, in the assay with M14, in the assay on BT-549, in the assay with MDA-MB-231 and in the assay on NCI-H460 was > 100 µM (inactive) in each case. Further, the GI50 with OVCAR-3 is > 100 µM (inactive); with SK-MEL-2, > 100 µM (inactive); in the assay on RPMI-8226 it was > 100 µM (inactive); in the assay with Hs-578T, 7.8 µM (inactive); in the assay with NCI-H23, > 100 µM (inactive); with CAKI-1 it was > 100 µM (inactive).

Consider `C=C(C)[C@@H]1CCC2=C[C@@H](OC2=O)[C@@H](C(=C)C)C2=CC(C(=O)O)=C(C1)O2`, for which the GI50 was > 100 µM (inactive) in the assay on EKVX; > 100 µM (inactive) in the assay with A498; > 100 µM (inactive) with HOP-92; > 100 µM (inactive) in the assay with SF-539; 41 µM (inactive) in the assay with K562; 26 µM (inactive) in the assay with UO-31. In addition, the GI50 in the assay on T47D was 59.2 µM (inactive); with HCT-15, greater than 100 µM; in the assay on RXF 393, > 100 µM (inactive); in the assay with M14 it was > 100 µM (inactive); with BT-549, > 100 µM (inactive); with MDA-MB-231 it was > 100 µM (inactive). For the same compound, the GI50 in the assay with OVCAR-3 was 34.1 µM (inactive); in the assay with SK-MEL-2, > 100 µM (inactive); in the assay with RPMI-8226, 40.6 µM (inactive); with Hs-578T, > 100 µM (inactive); in the assay on NCI-H23, > 100 µM (inactive); in the assay on CAKI-1 it was > 100 µM (inactive).

On to `CCOC(=O)CNC(=O)C(C)NC(=O)C(NC(=O)OCc1ccccc1)C(C)C` (stereo not drawn) (Cbz-Val-Ala-Gly-OEt; configuration not given here), for which the GI50 with EKVX was > 100 µM (inactive); in the assay with HOP-92, > 100 µM (inactive); in the assay with SF-539, > 100 µM (inactive); in the assay with K562 it was 48.1 µM (inactive); with UO-31 it was 98.9 µM (inactive); in the assay on HCT-15, greater than 100 µM. In addition, the GI50 in the assay on RXF 393 was > 100 µM (inactive); with PC-3, > 100 µM (inactive); in the assay with M14, > 100 µM (inactive); with BT-549, 58.7 µM (inactive); with NCI-H460 it was > 100 µM (inactive); with OVCAR-3 it was > 100 µM (inactive). The GI50 in the assay on SK-MEL-2 is 77.8 µM (inactive); in the assay on RPMI-8226, > 100 µM (inactive); in the assay on Hs-578T, > 100 µM (inactive); in the assay with NCI-H23, > 100 µM (inactive); with CAKI-1, > 100 µM (inactive).

Turning to `CCOC(=O)N/N=C(\CC)OCC`, the GI50 is > 100 µM (inactive) in the assay with EKVX; > 100 µM (inactive) in the assay on SF-539; > 100 µM (inactive) in the assay with K562; > 100 µM (inactive) in the assay on UO-31; > 100 µM (inactive) with T47D; greater than 100 µM in the assay with HCT-15. Besides, the GI50 in the assay with RXF 393, in the assay with PC-3, with M14, with BT-549, in the assay on MDA-MB-231 and with NCI-H460 was > 100 µM (inactive) throughout. In addition, the GI50 with OVCAR-3, with SK-MEL-2, in the assay on Hs-578T and in the assay on CAKI-1 was > 100 µM (inactive) throughout.
